Patent publication EP4691489A1, “GROWTH HORMONE SECRETION PROMOTER” (Scohia Pharma, Inc., priority 2023, dated 2024)
One block for each molecule: values may come before it.

Experiments:
SSTR 5 [1] = biological target: T1, SSTR 5 (Homo sapiens, UniProt P35346); test: radiolabeled ligand binding assay, selectivity for human SSTR subtype; set-up: expressed in transfected cells; host or cells: CHO-K1 cells (membrane fraction)
Method: (§1) The selectivity of test compounds for human SSTR subtypes was investigated by radiolabeled ligand binding assay. The membrane fraction of CHO-K1 cells expressing human SSTR1-5 was suspended in am assay buffer (25 mM HEPES (pH 7.4), 5 mM MgCl2, 1 mM CaCl2, 10 µg/mL saponin, 0.5% fatty-acid free BSA) and incubated for 1 hr in the presence of 1 µM test compound 1 and [^125I] Tyr^11-somatostatin 14 (Perkin Elmer). Thereafter, the solution containing the membrane fraction was transferred onto a filter plate, and after washing the filter six times with a wash buffer (25 mM HEPES, 5 mM MgCl2, 1 mM CaCl2), 50 µL of Microscint 20 (Packard) was added, and the radioactivity was measured using a TopCount (Perkin Elmer). The results of competitive activity of the test compound against the binding of the human SSTR subtypes with the labeled ligands are shown in Table 2.

SSTR 5 [2] = biological target: T1, SSTR 5; test: human SSTR5 antagonist activity using intracellular cAMP concentration as an indicator (HTRF); type: cell-based; set-up: expressed in transfected cells; details: 1 µM test compound; CHO (dhfr-) cells expressing human SSTR5; 0.1 nM somatostatin 28, 0.3 µM forskolin; read-out: inhibitory rate (%) against SSTR5 at 1 µM
Method: The intracellular cAMP concentration was measured using HTRF cAMP dynamic 2 kit (Cisbio). A test compound diluted with an assay buffer (5 mM HEPES (pH 7.5) (Invitrogen), 0.1% fatty-acid free BSA (Sigma), and 500 µM IBMX (Wako)-containing HBSS (Invitrogen)) was added at 2 µL/well to a 384-well white plate (Greiner) to a final concentration of 1 µM. Frozen stock of CHO (dhfr-) cells stably expressing the human SSTR5 gene (Accession No. NM_001053) was thawed in a thermostatic tank at 37°C and suspended in a passage medium (MEM alpha (Wako)) containing 10% dialyzed serum (Gemini) and 50 µg/mL gentamicin (Invitrogen). The cell suspension was centrifuged, and the cells were resuspended in an assay buffer, and added by 2 µL to each well at about 4,000 cells/well. The compound and the cells were incubated for 15 min, an assay buffer containing a final concentration 0.1 nM of somatostatin 28 (Toray Research Center) and 0.3 µM forskolin (Wako) was added by 2 µL/well, and the cells were incubated at room temperature for 30 min. cAMP-d2 and anti-cAMP-cryptate were each added by 3 µL/well, allowed to stand at room temperature for 60 min, and the fluorescence resonance energy transfer (FRET) intensity was measured using the Multi-label reader Envision (Perkin Elmer). The FRET intensity of the wells to which the test compound group was added was converted into cAMP concentration by using a calibration curve created from the FRET intensities of well groups in which cAMP at any concentration was added to the assay buffer. The inhibitory activity of the compound was calculated using the following formula. Inhibitory activity(%) = (C−B)/(A−B) × 100 [formula] • A: cAMP concentration calculated from wells containing 0.3 µM forskolin • B: cAMP concentration calculated from wells containing 0.3 µM forskolin, 0.1 nM somatostatin 28 • C: cAMP concentration of wells containing 0.3 µM forskolin, 0.1 nM somatostatin 28, and 1 µM test compound

SSTR 2 = biological target: T2, SSTR 2 (Homo sapiens, UniProt P30874); test: radiolabeled ligand binding assay, selectivity for human SSTR subtype; details: CHO-K1 membrane fraction, [125I] Tyr11-somatostatin 14, 1 µM compound
T2 construct: expressed in transfected cells; host or cells: CHO-K1 cells (membrane fraction)
T2 sequence (P30874 whole entry): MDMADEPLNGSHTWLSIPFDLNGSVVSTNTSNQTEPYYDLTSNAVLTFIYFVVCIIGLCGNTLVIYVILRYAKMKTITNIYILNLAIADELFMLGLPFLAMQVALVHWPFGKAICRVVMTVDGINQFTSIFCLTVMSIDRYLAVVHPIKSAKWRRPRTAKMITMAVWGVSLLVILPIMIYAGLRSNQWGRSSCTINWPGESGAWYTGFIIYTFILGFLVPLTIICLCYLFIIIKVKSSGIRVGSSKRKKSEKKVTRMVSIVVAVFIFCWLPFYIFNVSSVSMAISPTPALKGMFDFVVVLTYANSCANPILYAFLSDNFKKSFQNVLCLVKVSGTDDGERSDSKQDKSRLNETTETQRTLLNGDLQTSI
Method: as §1

SSTR 1 = biological target: T3, SSTR 1 (Homo sapiens, UniProt P30872); test: as above; details: CHO-K1 membrane fraction, [125I] Tyr11-somatostatin 14, 1 µM compound
T3 construct: expressed in transfected cells; host or cells: CHO-K1 cells (membrane fraction)
T3 sequence (P30872 whole entry): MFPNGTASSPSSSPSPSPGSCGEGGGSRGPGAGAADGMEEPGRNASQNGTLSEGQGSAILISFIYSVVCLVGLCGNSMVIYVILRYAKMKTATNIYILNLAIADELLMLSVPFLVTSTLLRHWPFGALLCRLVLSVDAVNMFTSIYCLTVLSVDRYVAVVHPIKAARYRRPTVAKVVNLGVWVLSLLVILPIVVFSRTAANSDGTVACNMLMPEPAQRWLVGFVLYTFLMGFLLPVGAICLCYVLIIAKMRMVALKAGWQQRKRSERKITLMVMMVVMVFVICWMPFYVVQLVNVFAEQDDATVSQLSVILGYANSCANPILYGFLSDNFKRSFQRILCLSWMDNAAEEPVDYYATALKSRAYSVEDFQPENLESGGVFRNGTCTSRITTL
Method: as §1

SSTR 4 = biological target: T4, SSTR 4 (Homo sapiens, UniProt P31391); test: as above; details: CHO-K1 membrane fraction, [125I] Tyr11-somatostatin 14, 1 µM compound
T4 construct: expressed in transfected cells; host or cells: CHO-K1 cells (membrane fraction)
T4 sequence (P31391 whole entry): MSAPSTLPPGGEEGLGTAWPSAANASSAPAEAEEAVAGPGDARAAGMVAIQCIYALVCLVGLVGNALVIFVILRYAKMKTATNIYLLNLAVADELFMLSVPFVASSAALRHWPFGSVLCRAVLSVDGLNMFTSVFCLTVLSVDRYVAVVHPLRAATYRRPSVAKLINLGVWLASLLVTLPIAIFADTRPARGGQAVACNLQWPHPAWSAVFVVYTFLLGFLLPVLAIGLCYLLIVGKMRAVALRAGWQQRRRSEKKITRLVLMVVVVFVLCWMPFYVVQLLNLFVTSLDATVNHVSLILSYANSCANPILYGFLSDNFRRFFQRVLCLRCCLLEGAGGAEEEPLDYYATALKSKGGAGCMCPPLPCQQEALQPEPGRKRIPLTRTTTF
Method: as §1

SSTR 3 = biological target: T5, SSTR 3 (Homo sapiens, UniProt P32745); test: as above; details: CHO-K1 membrane fraction, [125I] Tyr11-somatostatin 14, 1 µM compound
T5 construct: expressed in transfected cells; host or cells: CHO-K1 cells (membrane fraction)
T5 sequence (P32745 whole entry): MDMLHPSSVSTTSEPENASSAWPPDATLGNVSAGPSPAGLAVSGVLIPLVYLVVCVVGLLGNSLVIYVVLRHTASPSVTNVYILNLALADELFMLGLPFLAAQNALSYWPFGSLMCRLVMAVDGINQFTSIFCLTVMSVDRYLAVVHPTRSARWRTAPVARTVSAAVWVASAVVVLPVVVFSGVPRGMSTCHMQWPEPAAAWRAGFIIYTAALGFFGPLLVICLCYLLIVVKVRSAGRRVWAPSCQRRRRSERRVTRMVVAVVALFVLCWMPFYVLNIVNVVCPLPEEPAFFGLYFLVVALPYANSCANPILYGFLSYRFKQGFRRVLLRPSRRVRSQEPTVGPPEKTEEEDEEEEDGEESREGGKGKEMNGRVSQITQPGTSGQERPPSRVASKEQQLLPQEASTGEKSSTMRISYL
Method: as §1

[3] = tested on: healthy Japanese adult men; test: Phase 1 single dose study, blood anterior pituitary hormone concentrations (ELISA); type: in vivo; details: human
Method: The examples in this section show the measurement results of blood anterior pituitary hormone concentrations using blood samples from a dose escalation study targeting healthy Japanese adult men, from A Randomized, Double-Blind, Placebo-Controlled, Phase 1 Study (jRCT2051210027) targeting healthy adults, which was conducted to examine the safety and tolerability, pharmacokinetics, and pharmacodynamic action of a single administration of test compound 1.
In a randomized, double-blind, placebo-controlled, parallel-group comparison, dose-escalation study consisting of 7 cohorts, a single dose of test compound 1 (1, 3, 10, 20, 40, 80 and 160 mg) or placebo was orally administered under fasting conditions. Eight test subjects (6 in the active drug group and 2 in the placebo group) participated in each cohort. The concomitant use of all medications was prohibited from 28 days before hospitalization until discharge.
The test subjects were inspected and examined within 28-2 days and 1 day before administration of test compound 1, and eligibility was confirmed based on the above-mentioned inclusion criteria and exclusion criteria. […] They were fasted for 10 hr before administration and 4 hr after administration until lunch, and took lunch at 13:00 p.m. The blood was collected 0.5 hr before and 1, 2, 4, 6, 8, and 10 hr after administration of test compound 1.
The concentration of anterior pituitary hormone was measured using blood from the placebo administration group of all cohorts and the test subjects who received administration of 1 mg or 10 mg of test compound 1, at 0.5 hr before administration and 2, 4, 6, 8, and 10 hr after administration. The concentrations of growth hormone, follicle-stimulating hormone, luteinizing hormone, thyroid-stimulating hormone, adrenocorticotropic hormone, and prolactin in blood were measured using the Human Growth Hormone Quantikine ELISA Kit (manufactured by R&D Systems), Follicle-Stimulating Hormone (Human) ELISA Kit (manufactured by Cayman Chemical), Luteinizing Hormome (Human) ELISA Kit (manufactured by Cayman Chemical), U-TSH ELISA (manufactured by BIOCHECK), ACTH ELISA Kit (manufactured by MB Biosciences GmbH), and Human Prolactin Quantikine ELISA Kit (manufactured by R&D Systems) according to the protocol described in the package insert of each kit.

T1 sequence (P35346 whole entry): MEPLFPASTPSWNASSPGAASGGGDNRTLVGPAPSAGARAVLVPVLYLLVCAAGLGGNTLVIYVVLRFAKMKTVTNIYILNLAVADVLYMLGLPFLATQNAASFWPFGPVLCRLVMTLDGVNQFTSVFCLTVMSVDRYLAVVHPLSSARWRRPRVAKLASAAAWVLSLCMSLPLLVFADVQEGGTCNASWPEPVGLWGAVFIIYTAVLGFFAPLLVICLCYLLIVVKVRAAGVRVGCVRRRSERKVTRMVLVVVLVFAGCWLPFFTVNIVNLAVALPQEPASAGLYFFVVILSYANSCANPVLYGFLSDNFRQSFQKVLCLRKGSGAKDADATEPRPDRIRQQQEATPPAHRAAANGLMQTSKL

labeled ligand binding rate (%) at 1 µM (SSTR 5 [1]; SSTR 5, CHO-K1 membrane fraction, [125I] Tyr11-somatostatin 14, 1 µM compound): 4.51%
selectivity among the human SSTR subtypes (SSTR 5 [1]; conclusion from Table 2, 1 µM): selectively binds to SSTR5
inhibition at 1 µM (SSTR 5 [2]): 87%
labeled ligand binding rate (%) at 1 µM (SSTR 2): 100.31%
labeled ligand binding rate (%) at 1 µM (SSTR 1): 105.83%
labeled ligand binding rate (%) at 1 µM (SSTR 4): 109.00%
labeled ligand binding rate (%) at 1 µM (SSTR 3): 99.22%
SMILES: CCCc1nc2c(cc1C(=O)O)C(=O)N(C1CCN(Cc3cc(C4CC4)c(-c4ccc(F)cc4)cc3OCC)CC1)CC2 [test compound 1, 6-(1-((2-cyclopropyl-5-ethoxy-4'-fluorobiphenyl-4-yl)methyl)piperidin-4-yl)-5-oxo-2-propyl-5,6,7,8-tetrahydro-1,6-naphthyridine-3-carboxylic acid]
growth hormone secretion (blood growth hormone concentration) ([3]; single oral dose 1 mg and 10 mg, fasting, up to 10 hr after administration, Fig. 1): clearly enhance growth hormone secretion
secretion of follicle-stimulating hormone ([3]; single oral dose 1 mg and 10 mg, fasting, Fig. 2): did not substantially affect the secretion
secretion of luteinizing hormone ([3]; single oral dose 1 mg and 10 mg, fasting, Fig. 3): did not substantially affect the secretion
secretion of thyroid-stimulating hormone ([3]; single oral dose 1 mg and 10 mg, fasting, Fig. 4): did not substantially affect the secretion
secretion of adrenocorticotropic hormone ([3]; single oral dose 1 mg and 10 mg, fasting, Fig. 5): did not substantially affect the secretion
secretion of prolactin ([3]; single oral dose 1 mg and 10 mg, fasting, Fig. 6): did not substantially affect the secretion
increase in blood growth hormone concentration compared with growth hormone replacement therapy ([3]; compared with literature values for patients with pediatric growth hormone deficiency (J Clin Endocrinol Metab. 2017)): corresponds to the blood growth hormone concentration obtained by growth hormone replacement therapy

inhibition at 1 µM (SSTR 5 [2]): 85%
SMILES: CCCc1nc2c(cc1C(=O)O)C(=O)N(C1CCN(Cc3cc(C4CC4)c(-c4ccc(F)cc4)c(F)c3OCC)CC1)CC2 [test compound 2, 6-(1-((6-cyclopropyl-3-ethoxy-2,4'-difluorobiphenyl-4-yl)methyl)piperidin-4-yl)-5-oxo-2-propyl-5,6,7,8-tetrahydro-1,6-naphthyridine-3-carboxylic acid]

inhibition at 1 µM (SSTR 5 [2]): 125%
SMILES: CCCc1nc2c(cc1C(=O)O)C(=O)N(C1CCN(Cc3cc(C4CC4)c(-c4ccc(F)cc4F)cc3OCC)CC1)CC2 [test compound 3, 6-(1-((2-cyclopropyl-5-ethoxy-2',4'-difluorobiphenyl-4-yl)methyl)piperidin-4-yl)-5-oxo-2-propyl-5,6,7,8-tetrahydro-1,6-naphthyridine-3-carboxylic acid]

inhibition at 1 µM (SSTR 5 [2]): 95%
SMILES: CCOc1c(CN2CCC(N3CCc4nc(CC)c(C(=O)O)cc4C3=O)CC2)cc(C2CC2)c(-c2ccc(F)cc2)c1F [test compound 4, 6-(1-((6-cyclopropyl-3-ethoxy-2,4'-difluorobiphenyl-4-yl)methyl)piperidin-4-yl)-2-ethyl-5-oxo-5,6,7,8-tetrahydro-1,6-naphthyridine-3-carboxylic acid]

inhibition at 1 µM (SSTR 5 [2]): 87%
SMILES: CCOc1c(CN2CCC(n3ccc(C(=O)O)c(CC)c3=O)CC2)cc(C2CC2)c(-c2ccc(F)cc2)c1F [test compound 5, 1-(1-((6-cyclopropyl-3-ethoxy-2,4'-difluorobiphenyl-4-yl)methyl)piperidin-4-yl)-3-ethyl-2-oxo-1,2-dihydropyridine-4-carboxylic acid]

inhibition at 1 µM (SSTR 5 [2]): 99%
SMILES: Cc1c(C(=O)O)ccn(C2CCN(Cc3cc(C4CC4)c(-c4ccc(F)cc4)c(F)c3OC(C)C)CC2)c1=O [test compound 6, 1-(1-((6-cyclopropyl-2,4'-difluoro-3-isopropoxybiphenyl-4-yl)methyl)piperidin-4-yl)-3-methyl-2-oxo-1,2-dihydropyridine-4-carboxylic acid]

inhibition at 1 µM (SSTR 5 [2]): 87%
SMILES: CCOc1c(CN2CCC(n3ccc(C(=O)O)c(C)c3=O)CC2)cc(C2CC2)c(-c2ccc(F)cc2)c1F [test compound 7, 1-(1-((6-cyclopropyl-3-ethoxy-2,4'-difluorobiphenyl-4-yl)methyl)piperidin-4-yl)-3-methyl-2-oxo-1,2-dihydropyridine-4-carboxylic acid]
